How the values were obtained:
Type in all cases: in vivo
kochia (Bassia scoparia) [1] = test: Test A preemergence, kochia; conditions: Preemergence; for Kochia plant response rating: 125 g ai/ha, visual injury on 0 to 100 scale (0 no effect, 100 complete control), approximately 10 days; for Plant response rating, Kochia: 500 g ai/ha, 0 to 100 scale (0 no effect, 100 complete control)
From the text: (§1) Seeds of plant species selected from barnyardgrass (Echinochloa crus-galli), kochia (Bassia scoparia), ragweed (common ragweed, Ambrosia artemisiifolia), Ryegrass, Italian (Italian ryegrass, Lolium multiflorum), Foxtail, Giant (giant foxtail, Setaria faberi), and pigweed (Amaranthus retroflexus) were planted into a blend of loam soil and sand and treated preemergence with a directed soil spray using test chemicals formulated in a non-phytotoxic solvent mixture which included a surfactant. At the same time, plants selected from these weed species and also wheat (Triticum aestivum), corn (Zea mays), blackgrass (Alopecurus myosuroides), and galium (catchweed bedstraw, Galium aparine) were planted in pots containing the same blend of loam soil and sand and treated with postemergence applications of test chemicals formulated in the same manner. Plants ranged in height from 2 to 10 cm and were in the one- to two-leaf stage for the postemergence treatment. […] A dash (-) response means no test result.

[2] = test system: pigweed (Amaranthus retroflexus); test: Test A postemergence, pigweed; conditions: Postemergence, 0 to 100 scale (0 no effect, 100 complete control); for Pigweed plant response rating: visual injury vs untreated controls after approx. 10 days
From the text: as §1

[3] = test system: ragweed (common ragweed, Ambrosia artemisiifolia); test: Test A postemergence, ragweed; conditions: Postemergence, 0 to 100 scale (0 no effect, 100 complete control); for Ragweed plant response rating: visual injury vs untreated controls after approx. 10 days
From the text: as §1

[4] = test system: ragweed (common ragweed, Ambrosia artemisiifolia); test: Test A preemergence, ragweed; conditions: Preemergence; for Ragweed plant response rating: 125 g ai/ha, visual injury on 0 to 100 scale (0 no effect, 100 complete control), approximately 10 days; for Plant response rating, Ragweed: 500 g ai/ha, 0 to 100 scale (0 no effect, 100 complete control)
From the text: as §1

[5] = test system: barnyardgrass (Echinochloa crus-galli); test: Test A postemergence, barnyardgrass; conditions: Postemergence, 0 to 100 scale (0 no effect, 100 complete control); for Barnyardgrass plant response rating: visual injury vs untreated controls after approx. 10 days
From the text: as §1

corn (Zea mays) = test: Test A postemergence, corn; conditions: Postemergence, 0 to 100 scale (0 no effect, 100 complete control); for Corn plant response rating: visual injury vs untreated controls after approx. 10 days
From the text: as §1

[6] = test system: barnyardgrass (Echinochloa crus-galli); test: Test A preemergence, barnyardgrass; conditions: Preemergence; for Barnyardgrass plant response rating: 125 g ai/ha, visual injury on 0 to 100 scale (0 no effect, 100 complete control), approximately 10 days; for Plant response rating, Barnyardgrass: 500 g ai/ha, 0 to 100 scale (0 no effect, 100 complete control)
From the text: as §1

[7] = test system: galium (catchweed bedstraw, Galium aparine); test: Test A postemergence, galium; conditions: Postemergence, 0 to 100 scale (0 no effect, 100 complete control); for Galium plant response rating: visual injury vs untreated controls after approx. 10 days
From the text: as §1

[8] = test system: Ryegrass, Italian (Italian ryegrass, Lolium multiflorum); test: Test A preemergence, Ryegrass, Italian; conditions: Preemergence; for Ryegrass, Italian plant response rating: 125 g ai/ha, visual injury on 0 to 100 scale (0 no effect, 100 complete control), approximately 10 days; for Plant response rating, Ryegrass, Italian: 500 g ai/ha, 0 to 100 scale (0 no effect, 100 complete control)
From the text: as §1

[9] = test system: blackgrass (Alopecurus myosuroides); test: Test A postemergence, blackgrass; conditions: Postemergence, 0 to 100 scale (0 no effect, 100 complete control); for Blackgrass plant response rating: visual injury vs untreated controls after approx. 10 days
From the text: as §1

kochia (Bassia scoparia) [10] = test: Test A postemergence, kochia; conditions: Postemergence, 0 to 100 scale (0 no effect, 100 complete control); for Kochia plant response rating: visual injury vs untreated controls after approx. 10 days
From the text: as §1

[11] = test system: wheat (Triticum aestivum); test: Test A postemergence, wheat; conditions: Postemergence, 0 to 100 scale (0 no effect, 100 complete control); for Wheat plant response rating: visual injury vs untreated controls after approx. 10 days
From the text: as §1

[12] = test system: Ryegrass, Italian (Italian ryegrass, Lolium multiflorum); test: Test A postemergence, Ryegrass, Italian; conditions: Postemergence, 0 to 100 scale (0 no effect, 100 complete control); for Ryegrass, Italian plant response rating: visual injury vs untreated controls after approx. 10 days
From the text: as §1

[13] = test system: Foxtail, Giant (giant foxtail, Setaria faberi); test: Test A postemergence, Foxtail, Giant; conditions: Postemergence, 0 to 100 scale (0 no effect, 100 complete control); for Foxtail, Giant plant response rating: visual injury vs untreated controls after approx. 10 days
From the text: as §1

[14] = test system: Foxtail, Giant (giant foxtail, Setaria faberi); test: Test A preemergence, Foxtail, Giant; conditions: Preemergence; for Foxtail, Giant plant response rating: 125 g ai/ha, visual injury on 0 to 100 scale (0 no effect, 100 complete control), approximately 10 days; for Plant response rating, Foxtail, Giant: 500 g ai/ha, 0 to 100 scale (0 no effect, 100 complete control)
From the text: as §1

[15] = 125 g ai/ha, visual injury approx. 10 days
[16] = 500 g ai/ha, visual injury, approx. 10 days

| Compound | Kochia plant response rating (kochia (Bassia scoparia) [1]) | Plant response rating, Kochia (kochia (Bassia scoparia) [1]) | Plant response rating, Pigweed ([2]; 125 g ai/ha) | Pigweed plant response rating ([2]; 500 g ai/ha) | Plant response rating, Ragweed ([3]; 125 g ai/ha) | Ragweed plant response rating ([3]; 500 g ai/ha) | Ragweed plant response rating [4] | Plant response rating, Ragweed [4] | Plant response rating, Barnyardgrass ([5]; 125 g ai/ha) | Barnyardgrass plant response rating ([5]; 500 g ai/ha) | Plant response rating, Corn (corn (Zea mays); 125 g ai/ha) | Corn plant response rating (corn (Zea mays); 500 g ai/ha) | Barnyardgrass plant response rating [6] | Plant response rating, Barnyardgrass [6] | Ryegrass, Italian plant response rating [8] | Plant response rating, Ryegrass, Italian [8] | Plant response rating, Wheat ([11]; 125 g ai/ha) | Plant response rating, Ryegrass, Italian ([12]; 125 g ai/ha) | Foxtail, Giant plant response rating [14] | Plant response rating, Foxtail, Giant [14] | other results |
| --- | --- | --- | --- | --- | --- | --- | --- | --- | --- | --- | --- | --- | --- | --- | --- | --- | --- | --- | --- | --- | --- |
| Cc1cc(C)c(C2=NOC3(C2)CC(C)OC(C)C3)cc1NS(=O)(=O)C(F)(F)F (single isomer, unassigned) [Compound 171] | 70 | 90 | 60 | 80 | 40 | 90 | 80 | 90 | 90 | 90 | 80 | 80 | 90 | 100 | 100 | 100 | 60 | 80 | 100 | 100 | Plant response rating, Galium ([7]; 125 g ai/ha): 60; Galium plant response rating ([7]; 500 g ai/ha): 90; Plant response rating, Blackgrass ([9]; 125 g ai/ha): 40; Blackgrass plant response rating ([9]; 500 g ai/ha): 80; Plant response rating, Kochia (kochia (Bassia scoparia) [10]; 125 g ai/ha): 30; Kochia plant response rating (kochia (Bassia scoparia) [10]; 500 g ai/ha): 70; Wheat plant response rating ([11]; 500 g ai/ha): 60; Ryegrass, Italian plant response rating ([12]; 500 g ai/ha): 80; Plant response rating, Foxtail, Giant ([13]; 125 g ai/ha): 60; Foxtail, Giant plant response rating ([13]; 500 g ai/ha): 90 |
| Cc1cc(C)c(C2=NOC3(C2)CC(C)OC(C)C3)cc1NS(=O)(=O)C(F)(F)F (single isomer, unassigned) [Compound 173] | 60 | 90 | 80 | 90 | 80 | 90 | 90 | 90 | 80 | 90 | 70 | 80 | 90 | 90 | 90 | 100 | 70 | 70 | 100 | 100 | Plant response rating, Galium ([7]; 125 g ai/ha): 90; Galium plant response rating ([7]; 500 g ai/ha): 90; Plant response rating, Blackgrass ([9]; 125 g ai/ha): 50; Blackgrass plant response rating ([9]; 500 g ai/ha): 60; Plant response rating, Kochia (kochia (Bassia scoparia) [10]; 125 g ai/ha): 50; Kochia plant response rating (kochia (Bassia scoparia) [10]; 500 g ai/ha): 80; Wheat plant response rating ([11]; 500 g ai/ha): 70; Ryegrass, Italian plant response rating ([12]; 500 g ai/ha): 80; Plant response rating, Foxtail, Giant ([13]; 125 g ai/ha): 90; Foxtail, Giant plant response rating ([13]; 500 g ai/ha): 90 |
| CCc1cc(-c2cc(N(S(=O)(=O)C(F)(F)F)S(=O)(=O)C(F)(F)F)c(C)cc2C)c(=O)n(C)n1 [Compound 28] | 70 | 90 |  |  |  |  | 0 | 30 |  |  |  |  | 60 | 100 | 50 | 90 |  |  | 30 | 90 | Plant response rating, Pigweed [2, 15]: 0; Plant response rating, Pigweed [2, 16]: 40; Plant response rating, Ragweed [3, 15]: 20; Plant response rating, Ragweed [3, 16]: 80; Plant response rating, Barnyardgrass [5, 15]: 0; Plant response rating, Barnyardgrass [5, 16]: 80; Plant response rating, Corn (corn (Zea mays); [15]): 0; Plant response rating, Corn (corn (Zea mays); [16]): 0; Plant response rating, Galium [7, 15]: 20; Plant response rating, Galium [7, 16]: 70; Plant response rating, Blackgrass [9, 15]: 0; Plant response rating, Blackgrass [9, 16]: 30; Plant response rating, Kochia (kochia (Bassia scoparia) [10]; [15]): 0; Plant response rating, Kochia (kochia (Bassia scoparia) [10]; [16]): 30; Plant response rating, Wheat [11, 15]: 30; Plant response rating, Wheat [11, 16]: 50; Plant response rating, Ryegrass, Italian [12, 15]: 0; Plant response rating, Ryegrass, Italian [12, 16]: 0; Plant response rating, Foxtail, Giant [13, 15]: 0; Plant response rating, Foxtail, Giant [13, 16]: 10 |
| COC1CCN(C(=O)c2cc(N(S(=O)(=O)C(F)(F)F)S(=O)(=O)C(F)(F)F)c(C)cc2C)C1 (stereo not shown) [Compound 138] |  |  | 90 |  | 30 |  |  |  |  |  |  |  |  |  |  |  | 30 | 0 |  |  |  |
